In ChEMBL document CHEMBL3112435, “1H-1,2,3-Triazole-tethered isatin-7-chloroquinoline and 3-hydroxy-indole-7-chloroquinoline conjugates: synthesis and antimalarial evaluation” (Bioorg Med Chem Lett, 2014):
pIC50: −log10 of the molar value.

Each compound was assayed on Plasmodium falciparum (assay: Antimalarial activity against chloroquine-resistant Plasmodium falciparum W2 after 48 hrs by flow cytometry). Details: W2, 48 h.
Assay type: functional, organism-based
In the case of O=C1C(O)c2cc(F)ccc2N1CCCn1cc(COc2ccc(CNNc3ccnc4cc(Cl)ccc34)cc2)nn1 (configuration not stated), the pIC50 was 6.69.
Work on O=C1C(O)c2cc(Cl)ccc2N1CCn1cc(COc2ccc(CNNc3ccnc4cc(Cl)ccc34)cc2)nn1 (configuration not stated) yielded a pIC50 of 6.74.
Compound O=C1C(O)c2ccccc2N1CCCCn1cc(COc2ccc(CNNc3ccnc4cc(Cl)ccc34)cc2)nn1 (configuration not stated) has a pIC50 of 7.16.
Work on O=Cc1ccc(OCc2cn(CCCCN3C(=O)C(=O)c4cc(F)ccc43)nn2)cc1 yielded a pIC50 of less than 5.00.
Compound Cc1ccc2c(c1)C(=O)C(=O)N2CCCCn1cc(COc2ccc(C=O)cc2)nn1 has a pIC50 of 5.19.
O=C1C(O)c2cc(Cl)ccc2N1CCCn1cc(COc2ccc(CNNc3ccnc4cc(Cl)ccc34)cc2)nn1 (configuration not stated) showed a pIC50 of 6.46.
In the case of O=C1C(=O)N(CCCCn2cc(COc3ccc(/C=N/Nc4ccnc5cc(Cl)ccc45)cc3)nn2)c2ccc(F)cc21, the pIC50 was 6.87.
O=Cc1ccc(OCc2cn(CCN3C(=O)C(=O)c4ccccc43)nn2)cc1 gave a pIC50 of less than 5.00.
With O=C1C(O)c2ccccc2N1CCCn1cc(COc2ccc(CNNc3ccnc4cc(Cl)ccc34)cc2)nn1 (configuration not stated) the pIC50 was 6.47.
O=Cc1ccc(OCc2cn(CCCCN3C(=O)C(=O)c4cc(Cl)ccc43)nn2)cc1 was tested, and the pIC50 was less than 5.00.
Work on O=C1C(=O)N(CCn2cc(COc3ccc(/C=N/Nc4ccnc5cc(Cl)ccc45)cc3)nn2)c2ccc(F)cc21 yielded a pIC50 of 6.72.
O=C1C(=O)N(CCn2cc(COc3ccc(/C=N/Nc4ccnc5cc(Cl)ccc45)cc3)nn2)c2ccccc21 was tested, and the pIC50 was 6.93.
O=C1C(O)c2cc(F)ccc2N1CCn1cc(COc2ccc(CNNc3ccnc4cc(Cl)ccc34)cc2)nn1 (configuration not stated) showed a pIC50 of 6.95.
Cc1ccc2c(c1)C(=O)C(=O)N2CCCCn1cc(COc2ccc(/C=N/Nc3ccnc4cc(Cl)ccc34)cc2)nn1 was tested, and the pIC50 was 6.69.
In the case of O=Cc1ccc(OCc2cn(CCN3C(=O)C(=O)c4cc(F)ccc43)nn2)cc1, the pIC50 was less than 5.00.
Work on O=Cc1ccc(OCc2cn(CCCCN3C(=O)C(=O)c4ccccc43)nn2)cc1 yielded a pIC50 of less than 5.00.
O=C1C(=O)N(CCCn2cc(COc3ccc(/C=N/Nc4ccnc5cc(Cl)ccc45)cc3)nn2)c2ccccc21 showed a pIC50 of 6.78.
In the case of Cc1ccc2c(c1)C(O)C(=O)N2CCCn1cc(COc2ccc(CNNc3ccnc4cc(Cl)ccc34)cc2)nn1 (configuration not stated), the pIC50 was 6.29.
In the case of Cc1ccc2c(c1)C(=O)C(=O)N2CCn1cc(COc2ccc(C=O)cc2)nn1, the pIC50 was less than 5.00.
With Cc1ccc2c(c1)C(=O)C(=O)N2CCCn1cc(COc2ccc(/C=N/Nc3ccnc4cc(Cl)ccc34)cc2)nn1 the pIC50 was 6.79.
Cc1ccc2c(c1)C(=O)C(=O)N2CCCn1cc(COc2ccc(C=O)cc2)nn1 was tested, and the pIC50 was less than 5.00.
For O=Cc1ccc(OCc2cn(CCCN3C(=O)C(=O)c4cc(Cl)ccc43)nn2)cc1, the pIC50 was less than 5.00.
O=C1C(=O)N(CCCCn2cc(COc3ccc(/C=N/Nc4ccnc5cc(Cl)ccc45)cc3)nn2)c2ccccc21 gave a pIC50 of 6.92.
In the case of O=C1C(O)c2cc(F)ccc2N1CCCCn1cc(COc2ccc(CNNc3ccnc4cc(Cl)ccc34)cc2)nn1 (configuration not stated), the pIC50 was 6.79.
Cc1ccc2c(c1)C(=O)C(=O)N2CCn1cc(COc2ccc(/C=N/Nc3ccnc4cc(Cl)ccc34)cc2)nn1 showed a pIC50 of 6.73.
O=Cc1ccc(OCc2cn(CCN3C(=O)C(=O)c4cc(Cl)ccc43)nn2)cc1 was tested, and the pIC50 was less than 5.00.
Work on O=C1C(=O)N(CCCn2cc(COc3ccc(/C=N/Nc4ccnc5cc(Cl)ccc45)cc3)nn2)c2ccc(Cl)cc21 yielded a pIC50 of 6.46.
Cc1ccc2c(c1)C(O)C(=O)N2CCCCn1cc(COc2ccc(CNNc3ccnc4cc(Cl)ccc34)cc2)nn1 (configuration not stated) was tested, and the pIC50 was 6.49.
Work on Cc1ccc2c(c1)C(O)C(=O)N2CCn1cc(COc2ccc(CNNc3ccnc4cc(Cl)ccc34)cc2)nn1 (configuration not stated) yielded a pIC50 of 6.49.
With O=Cc1ccc(OCc2cn(CCCN3C(=O)C(=O)c4ccccc43)nn2)cc1 the pIC50 was less than 5.00.
O=C1C(=O)N(CCCCn2cc(COc3ccc(/C=N/Nc4ccnc5cc(Cl)ccc45)cc3)nn2)c2ccc(Cl)cc21 was tested, and the pIC50 was 6.85.
Work on O=C1C(O)c2cc(Cl)ccc2N1CCCCn1cc(COc2ccc(CNNc3ccnc4cc(Cl)ccc34)cc2)nn1 (configuration not stated) yielded a pIC50 of 6.77.
Compound O=C1C(=O)N(CCn2cc(COc3ccc(/C=N/Nc4ccnc5cc(Cl)ccc45)cc3)nn2)c2ccc(Cl)cc21 has a pIC50 of 6.58.
In the case of O=C1C(=O)N(CCCn2cc(COc3ccc(/C=N/Nc4ccnc5cc(Cl)ccc45)cc3)nn2)c2ccc(F)cc21, the pIC50 was 6.54.
Compound O=C1C(O)c2ccccc2N1CCn1cc(COc2ccc(CNNc3ccnc4cc(Cl)ccc34)cc2)nn1 (configuration not stated) has a pIC50 of 6.89.
In the case of C[C@@H]1CC[C@H]2[C@@H](C)C(=O)O[C@@H]3O[C@@]4(C)CC[C@@H]1[C@]32OO4 [ARTEMISININ], the pIC50 was 8.15.
With O=Cc1ccc(OCc2cn(CCCN3C(=O)C(=O)c4cc(F)ccc43)nn2)cc1 the pIC50 was less than 5.00.
